# Experimental data as given in patent US9918915B2, “Personal care compositions providing enhanced cooling sensation” (THE PROCTER & GAMBLE COMPANY, priority 2007, dated 2018).
# Assays:
# [1] = system: panelists; assay: Sensory evaluation of cooling sensation after brushing with coolant dentifrice followed by aqueous rinse with or without calcium; type: in vivo, human; set-up: key to Cooling Sensation Score: 0 = no cooling, 60 = intense cooling; 7.5 = definite cooling; details: for Cooling Sensation Score: 0-60 scale
# Description: Sensory evaluation studies of coolant activity were conducted using a methodology patterned after the techniques described in M. C. Meilgaard, et al., Sensory Evaluation Techniques, 4th Ed. (2007). In one study, a panel of 11 trained sensory experts evaluated cooling sensation experienced after brushing with a dentifrice containing coolant(s) followed by rinsing with an aqueous rinse containing a calcium ion source. Panelists brushed teeth with 1.5 grams of a test dentifrice (containing coolant) or control (no coolant) and then expectorated. After brush expectoration, panelists evaluated cooling intensity, assigning a number between 0 (no cooling) to 60 (intense cooling). Panelists then rinsed mouth with 15 ml. of an aqueous rinse (with or without calcium) and expectorated. After rinse expectoration, panelists evaluated cooling intensity according to the same 0 to 60 scale. Evaluations were conducted at 5, 15, 30, 45, 60 minute, etc. time points. At each evaluation, panelists were instructed to breathe in through pursed lips and evaluate overall cooling sensation. In this test, a numerical score of 7.5 indicates meaningful or definite cooling.
# [2] = molecular target: human TRPM8 (Homo sapiens, UniProt Q7Z2W7); assay: FLIPR intracellular calcium flux (Fluo-4) in HEK cells stably transfected with human TRPM8
# human TRPM8, sequence (Q7Z2W7 whole entry): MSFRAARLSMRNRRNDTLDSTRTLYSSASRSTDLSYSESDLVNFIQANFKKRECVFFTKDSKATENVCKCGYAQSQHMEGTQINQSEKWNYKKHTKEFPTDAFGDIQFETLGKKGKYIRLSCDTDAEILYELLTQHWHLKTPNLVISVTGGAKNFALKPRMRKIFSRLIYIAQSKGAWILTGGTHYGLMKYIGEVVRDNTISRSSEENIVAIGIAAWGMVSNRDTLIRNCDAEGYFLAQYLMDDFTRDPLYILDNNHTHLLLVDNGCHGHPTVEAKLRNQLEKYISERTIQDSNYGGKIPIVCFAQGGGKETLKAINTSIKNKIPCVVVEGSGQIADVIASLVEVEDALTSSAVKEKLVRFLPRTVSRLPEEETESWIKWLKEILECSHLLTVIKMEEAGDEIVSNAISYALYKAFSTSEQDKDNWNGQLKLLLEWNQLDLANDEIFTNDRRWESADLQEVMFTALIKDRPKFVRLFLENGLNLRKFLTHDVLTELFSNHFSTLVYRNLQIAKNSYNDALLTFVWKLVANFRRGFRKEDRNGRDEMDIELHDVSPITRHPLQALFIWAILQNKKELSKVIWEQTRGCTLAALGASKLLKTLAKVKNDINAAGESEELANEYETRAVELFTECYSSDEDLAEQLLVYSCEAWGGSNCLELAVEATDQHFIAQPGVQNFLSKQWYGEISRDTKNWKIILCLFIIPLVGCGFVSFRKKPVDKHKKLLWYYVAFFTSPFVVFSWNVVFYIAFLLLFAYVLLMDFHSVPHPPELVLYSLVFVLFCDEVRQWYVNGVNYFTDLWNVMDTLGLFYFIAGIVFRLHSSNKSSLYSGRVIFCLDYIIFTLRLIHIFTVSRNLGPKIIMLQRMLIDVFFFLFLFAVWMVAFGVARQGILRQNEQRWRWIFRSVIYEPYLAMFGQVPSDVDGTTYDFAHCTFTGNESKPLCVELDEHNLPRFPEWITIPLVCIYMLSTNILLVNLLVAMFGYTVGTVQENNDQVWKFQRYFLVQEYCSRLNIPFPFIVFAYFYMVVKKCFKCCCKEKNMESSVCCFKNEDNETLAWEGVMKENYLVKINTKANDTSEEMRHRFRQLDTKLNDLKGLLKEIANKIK
# [3] = 1000 ppm coolant in paste, rinse Ca+2 0 ppm, 0 min.
# [4] = 1000 ppm coolant in paste, rinse Ca+2 0 ppm, 5 min.
# [5] = 1000 ppm coolant in paste, rinse Ca+2 0 ppm, 15 min.
# [6] = 1000 ppm coolant in paste, rinse Ca+2 0 ppm, 30 min.
# [7] = 1000 ppm coolant in paste, rinse Ca+2 0 ppm, 45 min.
# [8] = 1000 ppm coolant in paste, rinse Ca+2 0 ppm, 60 min.
# [9] = 1500 ppm coolant in paste, rinse Ca+2 0 ppm, 0 min.
# [10] = 1500 ppm coolant in paste, rinse Ca+2 0 ppm, 5 min.
# [11] = 1500 ppm coolant in paste, rinse Ca+2 0 ppm, 15 min.
# [12] = 1500 ppm coolant in paste, rinse Ca+2 0 ppm, 30 min.
# [13] = 1500 ppm coolant in paste, rinse Ca+2 0 ppm, 45 min.
# [14] = 1500 ppm coolant in paste, rinse Ca+2 0 ppm, 60 min.
# [15] = 800 ppm coolant in paste, rinse Ca+2 0 ppm, 0 min.
# [16] = 800 ppm coolant in paste, rinse Ca+2 0 ppm, 5 min.
# [17] = 800 ppm coolant in paste, rinse Ca+2 0 ppm, 15 min.
# [18] = 800 ppm coolant in paste, rinse Ca+2 0 ppm, 30 min.
# [19] = 800 ppm coolant in paste, rinse Ca+2 0 ppm, 45 min.
# [20] = 800 ppm coolant in paste, rinse Ca+2 0 ppm, 60 min.
# [21] = 800 ppm coolant in paste, rinse Ca+2 723 ppm, 0 min.
# [22] = 800 ppm coolant in paste, rinse Ca+2 723 ppm, 5 min.
# [23] = 800 ppm coolant in paste, rinse Ca+2 723 ppm, 15 min.
# [24] = 800 ppm coolant in paste, rinse Ca+2 723 ppm, 30 min.
# [25] = 800 ppm coolant in paste, rinse Ca+2 723 ppm, 45 min.
# [26] = 800 ppm coolant in paste, rinse Ca+2 723 ppm, 60 min.
compound,measurement,setting,value
"CC1CCC(C(C)C)C(OC(=O)C(C)O)C1 (stereo not shown) [Menthyl Lactate, menthyl lactate]",Cooling Sensation Score,[1]; [3],23.0
same,Cooling Sensation Score,[1]; [4],12.7
same,Cooling Sensation Score,[1]; [5],2.3
same,Cooling Sensation Score,[1]; [6],0
same,Cooling Sensation Score,[1]; [7],0
same,Cooling Sensation Score,[1]; [8],0
same,Cooling Sensation Score,"[1]; 1000 ppm coolant in paste, rinse Ca+2 723 ppm, 0 min.",23.5
same,Cooling Sensation Score,"[1]; 1000 ppm coolant in paste, rinse Ca+2 723 ppm, 5 min.",12.4
same,Cooling Sensation Score,"[1]; 1000 ppm coolant in paste, rinse Ca+2 723 ppm, 15 min.",2.2
same,Cooling Sensation Score,"[1]; 1000 ppm coolant in paste, rinse Ca+2 723 ppm, 30 min.",0
same,Cooling Sensation Score,"[1]; 1000 ppm coolant in paste, rinse Ca+2 723 ppm, 45 min.",0
same,Cooling Sensation Score,"[1]; 1000 ppm coolant in paste, rinse Ca+2 723 ppm, 60 min.",0
"CCNC(=O)C1CC(C)CCC1C(C)C (stereo not shown) [WS-3, N-ethyl-ρ-menthan-3-carboxamide]",Cooling Sensation Score,[1]; [3],26.2
same,Cooling Sensation Score,[1]; [4],25.4
same,Cooling Sensation Score,[1]; [5],11.3
same,Cooling Sensation Score,[1]; [6],0
same,Cooling Sensation Score,[1]; [7],0
same,Cooling Sensation Score,[1]; [8],0
same,Cooling Sensation Score,"[1]; 1000 ppm coolant in paste, rinse Ca+2 271 ppm, 0 min.",23.8
same,Cooling Sensation Score,"[1]; 1000 ppm coolant in paste, rinse Ca+2 271 ppm, 5 min.",21.4
same,Cooling Sensation Score,"[1]; 1000 ppm coolant in paste, rinse Ca+2 271 ppm, 15 min.",10.8
same,Cooling Sensation Score,"[1]; 1000 ppm coolant in paste, rinse Ca+2 271 ppm, 30 min.",2.4
same,Cooling Sensation Score,"[1]; 1000 ppm coolant in paste, rinse Ca+2 271 ppm, 45 min.",0
same,Cooling Sensation Score,"[1]; 1000 ppm coolant in paste, rinse Ca+2 271 ppm, 60 min.",0
same,Cooling Sensation Score,"[1]; 1000 ppm coolant in paste, rinse Ca+2 542 ppm, 0 min.",23.6
same,Cooling Sensation Score,"[1]; 1000 ppm coolant in paste, rinse Ca+2 542 ppm, 5 min.",14.0
same,Cooling Sensation Score,"[1]; 1000 ppm coolant in paste, rinse Ca+2 542 ppm, 15 min.",0
same,Cooling Sensation Score,"[1]; 1000 ppm coolant in paste, rinse Ca+2 542 ppm, 30 min.",0
same,Cooling Sensation Score,"[1]; 1000 ppm coolant in paste, rinse Ca+2 542 ppm, 45 min.",0
same,Cooling Sensation Score,"[1]; 1000 ppm coolant in paste, rinse Ca+2 542 ppm, 60 min.",0
same,Cooling Sensation Score,[1]; [9],18.1
same,Cooling Sensation Score,[1]; [10],29.4
same,Cooling Sensation Score,[1]; [11],12.7
same,Cooling Sensation Score,[1]; [12],0
same,Cooling Sensation Score,[1]; [13],0
same,Cooling Sensation Score,[1]; [14],0
same,Cooling Sensation Score,"[1]; 1500 ppm coolant in paste, rinse Ca+2 271 ppm, 0 min.",20.0
same,Cooling Sensation Score,"[1]; 1500 ppm coolant in paste, rinse Ca+2 271 ppm, 5 min.",29.8
same,Cooling Sensation Score,"[1]; 1500 ppm coolant in paste, rinse Ca+2 271 ppm, 15 min.",9.5
same,Cooling Sensation Score,"[1]; 1500 ppm coolant in paste, rinse Ca+2 271 ppm, 30 min.",1.1
same,Cooling Sensation Score,"[1]; 1500 ppm coolant in paste, rinse Ca+2 271 ppm, 45 min.",0
same,Cooling Sensation Score,"[1]; 1500 ppm coolant in paste, rinse Ca+2 271 ppm, 60 min.",0
same,Cooling Sensation Score,"[1]; 1500 ppm coolant in paste, rinse Ca+2 542 ppm, 0 min.",19.3
same,Cooling Sensation Score,"[1]; 1500 ppm coolant in paste, rinse Ca+2 542 ppm, 5 min.",23.7
same,Cooling Sensation Score,"[1]; 1500 ppm coolant in paste, rinse Ca+2 542 ppm, 15 min.",5.0
same,Cooling Sensation Score,"[1]; 1500 ppm coolant in paste, rinse Ca+2 542 ppm, 30 min.",2.7
same,Cooling Sensation Score,"[1]; 1500 ppm coolant in paste, rinse Ca+2 542 ppm, 45 min.",0
same,Cooling Sensation Score,"[1]; 1500 ppm coolant in paste, rinse Ca+2 542 ppm, 60 min.",0
"CC(C)[C@@H]1CC[C@@H](C)CC12OCC(CO)O2 (stereo partly shown) [MGA, menthone glycerol acetal]",Cooling Sensation Score,[1]; [9],16.5
same,Cooling Sensation Score,[1]; [10],13.6
same,Cooling Sensation Score,[1]; [11],4.4
same,Cooling Sensation Score,[1]; [12],0
same,Cooling Sensation Score,[1]; [13],0
same,Cooling Sensation Score,[1]; [14],0
same,Cooling Sensation Score,"[1]; 1500 ppm coolant in paste, rinse Ca+2 723 ppm, 0 min.",20.7
same,Cooling Sensation Score,"[1]; 1500 ppm coolant in paste, rinse Ca+2 723 ppm, 5 min.",18.3
same,Cooling Sensation Score,"[1]; 1500 ppm coolant in paste, rinse Ca+2 723 ppm, 15 min.",7.0
same,Cooling Sensation Score,"[1]; 1500 ppm coolant in paste, rinse Ca+2 723 ppm, 30 min.",1.4
same,Cooling Sensation Score,"[1]; 1500 ppm coolant in paste, rinse Ca+2 723 ppm, 45 min.",0
same,Cooling Sensation Score,"[1]; 1500 ppm coolant in paste, rinse Ca+2 723 ppm, 60 min.",0
same,Calcium enhancing effect on cooling,[1]; 1500 ppm level of coolant in dentifrice,calcium enhancing effect was also observed
same,Potentiating effect of calcium ions on cooling intensity and duration,[1]; at the levels of coolant and calcium used,particularly evident
O=P([O-])(O)OP(=O)([O-])O.[Na+].[Na+] [Sodium acid pyrophosphate],% Change from G-180 value,"[2]; pre-treatment with 100 uM test compound + 6.25 uM G-180 vs 6.25 uM G-180 alone, calcium fluorescence",3.22%
same,Average Fluorescence (n = 3),"[2]; pre-treatment with 100 uM test compound for 30 minutes, then 6.25 uM G-180, HEK cells with human TRPM8, Fluo-4",18075.77
"CCOC(=O)CNC(=O)C1CC(C)CCC1C(C)C (stereo not shown) [WS-5, N-ethoxycarbonylmethyl-ρ-menthan-3-carboxamide]",Cooling Sensation Score,[1]; [15],29.2
same,Cooling Sensation Score,[1]; [16],22.4
same,Cooling Sensation Score,[1]; [17],8.3
same,Cooling Sensation Score,[1]; [18],1.0
same,Cooling Sensation Score,[1]; [19],0
same,Cooling Sensation Score,[1]; [20],0
same,Cooling Sensation Score,[1]; [21],30.8
same,Cooling Sensation Score,[1]; [22],22.2
same,Cooling Sensation Score,[1]; [23],8.4
same,Cooling Sensation Score,[1]; [24],2.2
same,Cooling Sensation Score,[1]; [25],0
same,Cooling Sensation Score,[1]; [26],0
"CNC(=O)C(C)(C(C)C)C(C)C [WS-23, N,2,3-trimethyl-2-isopropylbutanamide]",Cooling Sensation Score,[1]; [15],15.4
same,Cooling Sensation Score,[1]; [16],7.4
same,Cooling Sensation Score,[1]; [17],3.0
same,Cooling Sensation Score,[1]; [18],0
same,Cooling Sensation Score,[1]; [19],0
same,Cooling Sensation Score,[1]; [20],0
same,Cooling Sensation Score,[1]; [21],18.8
same,Cooling Sensation Score,[1]; [22],4.9
same,Cooling Sensation Score,[1]; [23],1.0
same,Cooling Sensation Score,[1]; [24],0
same,Cooling Sensation Score,[1]; [25],0
same,Cooling Sensation Score,[1]; [26],0
